Common to all, as to experiment: inhibition of tumour cell growth, NCI panel, 48 h
Test [1] concerns CAKI-1 renal.
In test [2] the test system is CCRF-CEM leukemia.
In test [3] the test system is MDA-MB-435.
Test [4] deals with MDA-N.
The test system of test [5] is NCI-H522 lung.
The test system of test [6] is OVCAR-3 ovarian.
Test [7] concerns OVCAR-5 ovarian.
Test [8] concerns SK-OV-3 ovarian.
The test system of test [9] is UACC-257 melanoma.
In test [10] the test system is UO-31 renal.

The structures appear in SMILES notation.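 The compound was tested at five concentrations on cells cultured in 96-well plates, with a 48-hour exposure period. TGI: total growth inhibition.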

As for `Brc1cccc(/C=C/CN2CCN(CCOC(c3ccccc3)c3ccccc3)CC2)c1`, the TGI in test [1] came out at 30.2 µM; in test [2] it was 29.5 µM; in test [3] it was 25.2 µM; in test [4], 32.9 µM; in test [5] it was 29.3 µM; in [6], 30.2 µM. In addition, the TGI in test [7] worked out at 34.7 µM; in test [8] it was 34.9 µM; in test [9], 33.4 µM; in test [10], 27.7 µM.

In the case of `CCOC(=O)/C(C#N)=C/c1ccc2c(-c3c(OCC)ccc4cc(/C=C(\C#N)C(=O)OCC)ccc34)c(OCC)ccc2c1`, the TGI in test [1], in test [2], in test [3], in [4], in test [5] and in [6] was over 100 µM each time. The TGI in test [7], in test [8], in [9] and in [10] was over 100 µM in each case.

Turning to `C/C(=N/NC(=S)Nc1ccccc1Cl)c1ccccn1`, the TGI is 19.7 µM in test [1]; 1.1 µM in test [2]; 17.1 µM in [3]; 19.7 µM in test [4]; 8.19 µM in [5]; 10.9 µM in test [6]. Besides, the TGI in test [7] was determined as 5.26 µM; in test [8], 13.7 µM; in [9], 1.07 µM; in test [10] it was 12.3 µM.

`CCN(CC)c1ccc(/C=C(\C#N)c2nc(N)nc(N3N=C(C)CC3(C)C)n2)cc1`: the TGI was 28.4 µM in [1]; over 100 µM in test [2]; over 100 µM in test [3]; over 100 µM in test [4]; 36.5 µM in test [5]; 37.9 µM in test [6]. The TGI was 93.9 µM in [7], 19.9 µM in test [8], over 100 µM in [9] and 55.4 µM in test [10].

As to `S=c1ssc2c3ssc(=S)c3n(Cc3ccccc3)c12`, the TGI is over 100 µM in test [1]; 58.2 µM in [2]; over 100 µM in [3]; over 100 µM in test [4]; over 100 µM in test [5]; over 100 µM in test [6]. The TGI in [7] is over 100 µM; in test [8], over 100 µM; in [9], over 100 µM; in test [10] it was 67 µM.

As for `Cc1ccc(S(=O)ON2CCC(C(=O)O)(c3ccccc3)CC2)cc1` (stereo not given), the TGI in test [1], in [2], in [3], in test [4], in [5] and in test [6] was over 100 µM each time. Also, the TGI in test [7], in [8], in [9] and in [10] was over 100 µM in each case.

Take `CCN(CC)C(=S)SS(=O)(=O)c1ccccc1C(=O)O`: the TGI in test [1] is over 100 µM; in test [2], over 100 µM; in test [3] it was over 100 µM; in test [4], over 100 µM; in test [5], over 36.3 µM; in test [6], over 100 µM. Moreover, the TGI in [7], in test [8], in [9] and in [10] was over 100 µM in each case.

On to `CN1C2CCC1CC(OC(c1ccccc1)c1ccccc1)C2` (stereo not given), for which the TGI in test [1] was over 100 µM; in [2] it was 29.9 µM; in [3], 29.8 µM; in [4] it was 28.8 µM; in test [5] it was 28.1 µM; in test [6], 47 µM. Besides, the TGI was 41.2 µM in [7], 47.1 µM in test [8], 26.6 µM in [9] and 40.1 µM in test [10].

On to `C[C@]12CC[C@@H]3c4ccc(O)cc4CC[C@H]3[C@@H]1C/C(=C\c1ccc([N+](=O)[O-])cc1)C2=O`, for which the TGI in test [1] is over 100 µM; in [2] it was over 100 µM; in test [3], over 100 µM; in test [4] it was over 100 µM; in [5], 65.4 µM; in [6], over 100 µM. Moreover, the TGI in test [7], in test [8], in test [9] and in test [10] was over 100 µM each time.

As for `Cn1c(=O)oc2cc(C(=O)CSC(=S)N3CCCCCC3)ccc21`, the TGI in test [1], in test [2], in [3], in test [4], in test [5] and in [6] was over 100 µM each time. Besides, the TGI in [7], in [8], in test [9] and in test [10] was over 100 µM each time.

For the compound `CSC(SC)=C1CC(=O)Nc2ccccc2C1=O`, the TGI in [1] was 94.1 µM; in test [2], 52.7 µM; in test [3] it was over 100 µM; in test [4] it was over 100 µM; in [5], over 100 µM; in test [6] it was over 100 µM. The TGI in [7], in [8], in test [9] and in [10] was over 100 µM in each case.

In the case of `CN(C)c1nc(N(C)C)nc(N(C)C)n1`, the TGI in [1] was over 140 µM; in test [2], over 150 µM; in test [3], over 150 µM; in [4], over 150 µM; in test [5] it was over 150 µM; in test [6] it was over 143 µM. Besides, the TGI in test [7], in test [8], in test [9] and in [10] was over 150 µM each time.

For the compound `CCOC(=O)CN1CCNCCN(CC(=O)OCC)CCNCC1`, the TGI in test [1], in [2], in test [3], in test [4], in [5] and in test [6] was over 100 µM each time. Further, the TGI in test [7], in test [8], in [9] and in [10] was over 100 µM throughout.

Source of the values: PubChem BioAssay (NCI).
